Source: paper PMC7497679, “Structure-based design, synthesis, and evaluation of the biological activity of novel phosphoroorganic small molecule IAP antagonists” (Investigational New Drugs, 2020)
Where two headings read alike, the source gives them in different places. Square brackets hold non-standard residues; d marks the D form. Ends that are not written are not given here. Peptide text beside a SMILES is read from it. Chg = N[C@H](C(=O)O)C1CCCCC1; NMeA = CN[C@@H](C)C(=O)O

Molecular target: T1, XIAP BIR3 domain (Homo sapiens, UniProt P98170)
T1 construct: fluorescent probe 4 and the XIAP BIR3 domain (Sino Biological, Beijing, China) were used for all measurements; purchased Sino Biological, Beijing, China
Experiment: Fluorescence polarization inhibition (competition) assay
Type: binding
Settings: for inhibition at 50 µM: 0.5 h; for interaction with the XIAP BIR3 domain (in words): fluorescence polarization
Experimental: The fluorescence polarization assay was performed at r.t. in Corning 384-well black, polystyrene flat bottom plates (Corning, NY, USA) on a Synergy H4 Hybrid Reader (BioTek, Bad Friedrichshall, Germany). For fluorescence polarization measurements, (milipolarization units, mP) 484/20 nm excitation and 528/20 nm emission filters were selected. Phosphate buffer (pH 7.5) supplemented with γ-globulin (100 µg/mL) and NaN3 (0.02% w/v), fluorescent probe 4 and the XIAP BIR3 domain (Sino Biological, Beijing, China) were used for all measurements. All experiments were performed in duplicate. The obtained fluorescence polarization assay data were analyzed with Prism 5.0 Software (GraphPad Software, San Diego, ca.).
After a 15 min incubation at r.t., fluorescent probe 4 (2 nM) was added. The values were measured 30 min after the moment the probe was added. The assay was performed in phosphate buffer with a final DMSO concentration of 1.4% (v/v). […] In order to evaluate the quality and precision of the performed screening assay, we determined the Z´ factor as described by Zhang et al.. The obtained fluorescence polarization values were used to determine the percent inhibition, which was plotted as a function of the protein concentration. The EC50 and Ki values were calculated with GraphPad software (log(agonist) vs. response (variable slope) model) in combination with the web tool developed by Nikolovska-Coleska et al..
Fluorescence polarization inhibition assay and data analysis for 41m and 42m compounds was performed as described in the Material and Methods section of the manuscript. Briefly, 50 nM solution of the BIR3 XIAP protein in polarization buffer was added into phosphoroorganic compound solution (from 50 μM to 0.0537 nM). After 15 min incubation at r.t. the fluorescent probe 4 (2 nM) was added.
The values were read after 30 minutes from the moment the probe was added. The obtained fluorescence polarization values were used to determine the percentage of inhibition which was plotted as a function of the protein concentration (Supplementary Figure S4).
(1 picture or pasted object on this page, not shown here)

[1] = antagonist 50 µM, inhibition of protein-probe interaction
[2] = XIAP BIR3 50 nM, fluorescent probe 4 2 nM
[3] = XIAP BIR3 50 nM, fluorescent probe 4 2 nM, read-out: EC50
[4] = XIAP BIR3 50 nM, fluorescent probe 4 2 nM, read-out: log EC50 (converted)

T1 sequence (P98170 252-356 limits assumed): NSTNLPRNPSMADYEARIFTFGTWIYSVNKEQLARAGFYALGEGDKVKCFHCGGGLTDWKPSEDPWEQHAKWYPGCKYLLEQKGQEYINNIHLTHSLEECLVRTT

| Molecule | inhibition at 50 µM [1] [%] | Ki [2] [µM] | EC50 [3] [µM] | EC50 [4] [µM] | log EC50 [2] [µM] | % Inh (50 µM) [1] [%] | interaction with the XIAP BIR3 domain (in words) |
| --- | --- | --- | --- | --- | --- | --- | --- |
| CN[C@@H](C)C(=O)N[C@H](C(=O)N1CCC[C@H]1C(=O)NC(C)P(=O)(Oc1ccccc1)Oc1ccccc1)C1CCCCC1 (stereo partly drawn) [Compound 30, diphenyl (1-((S)-1-((S)-2-cyclohexyl-2-((S)-2-(methylamino)propanamido)acetyl)pyrrolidine-2-carboxamido)ethyl)phosphonate] | 69 | 15 | 30.2 | 30.3 |  |  |  |
| CN[C@@H](C)C(=O)N[C@H](C(=O)N1CCC[C@H]1C(=O)NCP(=O)(c1ccccc1)c1ccccc1)C1CCCCC1 [Compound 12] |  | 13 | 26.3 |  | 1.420 ± 0.051 | 67.1 |  |
| CN[C@@H](C)C(=O)N[C@H](C(=O)N1CCC[C@H]1C(=O)NC(C)P(=O)(c1cc(C)cc(C)c1)c1cc(C)cc(C)c1)C(C)C (stereo partly shown) [Compound 22] | 59.2 | 16.1 | 32.5 | 32.4 |  |  |  |
| CN[C@@H](C)C(=O)N[C@H](C(=O)N1CCC[C@H]1C(=O)NCP(=O)(C(C)(C)C)C(C)(C)C)C1CCCCC1 [Compound 6] | 72 | 9.87 | 19.9 | 19.9 |  |  |  |
| CN[C@@H](C)C(=O)N[C@H](C(=O)N1CCC[C@H]1C(=O)NCP(=O)(c1cc(C)cc(C)c1)c1cc(C)cc(C)c1)C1CCCCC1 [Compound 21] | 74.4 | 11.2 | 22.5 | 22.5 |  |  |  |
| CN[C@@H](C)C(=O)N[C@H](C(=O)N1CCC[C@H]1C(=O)NCP(=O)(c1ccc(C)cc1)c1ccc(C)cc1)C(C)C [Compound 15, (S)-N-((di-p-tolylphosphoryl)methyl)-1-((S)-3-methyl-2-((S)-2-(methylamino)propanamido)butanoyl)pyrrolidine-2-carboxamide] | 61.6 | 15.3 | 30.8 | 30.8 |  |  |  |
| CN[C@@H](C)C(=O)N[C@H](C(=O)N1CCC[C@H]1C(=O)NCP(=O)(C(C)(C)C)C(C)(C)C)C(C)C [Compound 5] | 63.2 | 14.7 | 29.6 | 29.6 |  |  |  |
| CN[C@@H](C)C(=O)N[C@H](C(=O)N1CCC[C@H]1C(=O)NCP(=O)(C(C)C)C(C)C)C(C)C [Compound 7] | 32 |  |  |  |  |  |  |
| CN[C@@H](C)C(=O)N[C@H](C(=O)N1CCC[C@H]1C(=O)NCP(=O)(C1CCCCC1)C1CCCCC1)C1CCCCC1 [Compound 10] | ~25 |  |  |  |  |  |  |
| CN[C@@H](C)C(=O)N[C@H](C(=O)N1CCC[C@H]1C(=O)NCP(=O)(c1ccccc1C)c1ccccc1C)C1CCCCC1 [Compound 19, (S)-1-((S)-2-cyclohexyl-2-((S)-2-(methylamino)propanamido)acetyl)-N-((di-o-tolylphosphoryl)methyl)pyrrolidine-2-carboxamide] | 66.2 | 13.9 | 28 | 28.1 |  |  |  |
| CN[C@@H](C)C(=O)N[C@H](C(=O)N1CCC[C@H]1C(=O)NC(CCSC)P(=O)(Oc1ccccc1)Oc1ccccc1)C1CCCCC1 (stereo partly drawn) [Compound 40, diphenyl (1-((S)-1-((S)-2-cyclohexyl-2-((S)-2-(methylamino)propanamido)acetyl)pyrrolidine-2-carboxamido)-3-(methylthio)propyl)phosphonate] | 73.8 | 13 | 26.3 | 26.3 |  |  |  |
| CCC(C)C(NC(=O)[C@@H]1CCCN1C(=O)[C@@H](NC(=O)[C@H](C)NC)C(C)C)P(=O)(Oc1ccccc1)Oc1ccccc1 (stereo partly shown) [Compound 35] | 77.4 | 8.84 | 17.8 | 17.8 |  |  |  |
| [NMeA]-[Chg]-Pro-OH [Compound 2] |  |  |  |  |  |  | did not interact with the XIAP BIR3 domain at a significant level |
| CN[C@@H](C)C(=O)N[C@H](C(=O)N1CCC[C@H]1C(=O)NC(CC(C)C)P(=O)(Oc1ccccc1)Oc1ccccc1)C(C)C (stereo partly shown) [Compound 37] | 67.4 | 14 | 28.1 | 28.1 |  |  |  |
| [NMeA]-Val-Pro-OH [Compound 1] |  |  |  |  |  |  | did not interact with the XIAP BIR3 domain at a significant level |
| CCC(NC(=O)[C@@H]1CCCN1C(=O)[C@@H](NC(=O)[C@H](C)NC)C1CCCCC1)P(=O)(Oc1ccccc1)Oc1ccccc1 (stereo partly drawn) [Compound 32, diphenyl (1-((S)-1-((S)-2-cyclohexyl-2-((S)-2-(methylamino)propanamido)acetyl)pyrrolidine-2-carboxamido)propyl)phosphonate] | 71 | 11.9 | 24 | 24 |  |  |  |
| CCC(C)C(NC(=O)[C@@H]1CCCN1C(=O)[C@@H](NC(=O)[C@H](C)NC)C1CCCCC1)P(=O)(Oc1ccccc1)Oc1ccccc1 (stereo partly shown) [Compound 36] | 81.4 | 8.05 | 16.2 | 16.3 |  |  |  |
| CN[C@@H](C)C(=O)N[C@H](C(=O)N1CCC[C@H]1C(=O)NCP(=O)(c1ccc(C)cc1)c1ccc(C)cc1)C1CCCCC1 [Compound 16, (S)-1-((S)-2-cyclohexyl-2-((S)-2-(methylamino)propanamido)acetyl)-N-((di-p-tolylphosphoryl)methyl)pyrrolidine-2-carboxamide] | 57 | 20 | 40.3 | 40.4 |  |  |  |
| CN[C@@H](C)C(=O)N[C@H](C(=O)N1CCC[C@H]1C(=O)NC(C(C)C)P(=O)(Oc1ccccc1)Oc1ccccc1)C1CCCCC1 (stereo partly shown) [Compound 34] | 70.5 | 11.8 | 23.9 | 23.9 |  |  |  |
| CC(C)[C@H](NC(=O)[C@H](C)N)C(=O)N1CCC[C@H]1C(=O)N[C@@H](Cc1c[nH]c2ccccc12)C(=O)O [Compound 3, H2N-Ala-Val-Pro-Trp-OH, reference compound] (H-AVPW-OH) |  |  | 0.34 |  |  |  |  |
| CCc1ccc(OP(=O)(Oc2ccc(CC)cc2)C(C)NC(=O)[C@@H]2CCCN2C(=O)[C@@H](NC(=O)[C@H](C)NC)C2CCCCC2)cc1 (stereo partly shown) [Compound 24] | 74.1 | 10.2 | 20.5 | 20.6 |  |  |  |
| CN[C@@H](C)C(=O)N[C@H](C(=O)N1CCC[C@H]1C(=O)NCP(=O)(c1cc(C)cc(C)c1)c1cc(C)cc(C)c1)C(C)C [Compound 20, (S)-N-((bis(3,5-dimethylphenyl)phosphoryl)methyl)-1-((S)-3-methyl-2-((S)-2-(methylamino)propanamido)butanoyl)pyrrolidine-2-carboxamide] | 50 | 23.8 | 48 | 48 |  |  |  |
| CN[C@@H](C)C(=O)N[C@H](C(=O)N1CCC[C@H]1C(=O)NC(C)P(=O)(Oc1ccc(C(C)C)cc1)Oc1ccc(C(C)C)cc1)C1CCCCC1 (stereo partly shown) [Compound 26] | 85.8 | 9.84 | 19.8 | 19.8 |  |  |  |
| CN[C@@H](C)C(=O)N[C@H](C(=O)N1CCC[C@H]1C(=O)NC(C(C)C)P(=O)(Oc1ccccc1)Oc1ccccc1)C(C)C (stereo partly drawn) [Compound 33, diphenyl (2-methyl-1-((S)-1-((S)-3-methyl-2-((S)-2-(methylamino)propanamido)butanoyl)pyrrolidine-2-carboxamido)propyl)phosphonate] | 58.5 | 17.4 | 35 | 34.9 |  |  |  |
| CN[C@@H](C)C(=O)N[C@H](C(=O)N1CCC[C@H]1C(=O)NCP(=O)(C(C)C)C(C)C)C1CCCCC1 [Compound 8] | 41.3 |  |  |  |  |  |  |
| CCC(NC(=O)[C@@H]1CCCN1C(=O)[C@@H](NC(=O)[C@H](C)NC)C(C)C)P(=O)(Oc1ccccc1)Oc1ccccc1 (stereo partly drawn) [Compound 31, diphenyl (1-((S)-1-((S)-3-methyl-2-((S)-2-(methylamino)propanamido)butanoyl)pyrrolidine-2-carboxamido)propyl)phosphonate] | 57 | 18.8 | 38 | 38 |  |  |  |
| CN[C@@H](C)C(=O)N[C@H](C(=O)N1CCC[C@H]1C(=O)NCP(=O)(c1ccccc1)c1ccccc1)C(C)C [Compound 11] | 63.6 | 14.5 | 29.3 | 29.4 |  |  |  |
| CN[C@@H](C)C(=O)N[C@H](C(=O)N1CCC[C@H]1C(=O)NC(C)P(=O)(Oc1ccc(C(C)(C)C)cc1)Oc1ccc(C(C)(C)C)cc1)C1CCCCC1 (stereo partly drawn) [Compound 28, bis(4-(tert-butyl)phenyl) (1-((S)-1-((S)-2-cyclohexyl-2-((S)-2-(methylamino)propanamido)acetyl)pyrrolidine-2-carboxamido)ethyl)phosphonate] | 77.3 | 13.3 | 26.8 | 26.7 |  |  |  |
